Measured values as given in patent US4044150A, “Antihypertensive 4'-[1-hydroxy-2-[(1-phenoxy ethyl)-amino]ethyl]methanesulfonanilide and salts thereof and therapeutic use” (Mead Johnson & Company, priority 1976, dated 1977).
Entries after “also recorded” stand apart in the source; their conditions may differ.

Assays:
mammals = assay: general statement on heart rate at effective antihypertensive doses; format: in vivo; conditions: for change in heart rate: at effective antihypertensive or hypotensive doses
[1] = test system: Anesthetized Dog Challenged with Isoproterenol; assay: inherent cardiac and blood pressure effects in the isoproterenol challenged intact anesthetized dog; format: in vivo; conditions: for Absolute Change From Control in Contractile Force (CF) / Absolute Change From Control in Heart Rate (HR) / Absolute Change From Control in Mean Arterial Blood Pressure (MABP): decrease
Procedure: One such test involves the measurement of inherent cardiac and blood pressure effects in the isoproterenol challenged intact anesthetized dog. In this test model, dogs are anesthetized with a mixture of phenobarbital sodium (15 mg./kg.) and barbital sodium (225 mg./kg.) intravenously and are vagotomized bilaterally. Heart rate, contractile force and diastolic blood pressure are continuously recorded with alterations in these responses (e.g. tachycardia) produced by intravenously administered isoproterenol determined before and after injection of increasing doses of the test compound. The test substance is administered to separate groups of dogs at cumulative doses of 0.1, 0.3, 1, 3, and 10 mg./kg. body weight with each dose of the test substance infused slowly over a period of 3-5 minutes. After completing infusion of the test substance, a 10 -minute equilibrium period is allowed for drug-receptor interaction and stabilization of the cardiovascular system before a series of isoproterenol challenges is initiated. Maximum response to isoproterenol is achieved after each dose of the beta-adrenergic blocking agent by logarithmically increasing the dose of this agonist as receptor blockade develops. Each dose of isoproterenol is given approximately 5 minutes after the previous one and the overall dose range for isoproterenol is from 0.03-300 micrograms per kilogram body weight. Mean changes in the resting levels of the cardiovascular variables (heart rate, contractile force, and mean arterial blood pressure) due to the administration of each agent (which is taken as a measure of the inherent drug effect) is determined and statistically compared using the Student's test.

[2] = test system: Spontaneous Hypertensive Rat; assay: lowering of blood pressure and heart rate in the spontaneously hypertensive rat (SHR); format: in vivo; conditions: for ED (40 mm Hg) / ED (10%): Rattus norvegicus, 4 h; for ED (40 mm Hg): read-out: Dose which lowers blood pressure by 40 mm Hg; for ED (10%): read-out: Dose which lowers heart rate by 10%; for reduction of heart rate / reduction of systolic blood pressure: doses of 50-200 mg./kg., 4 hours (FIG. 1, FIG. 2)
Procedure: FIG. 1 constitutes a dose-response graph of blood pressure and heart rate changes determined in the spontaneous hypertensive rat 4 hours after orally administered 4'-[1-hydroxy-2-[(1 -phenoxyethyl)amino]ethyl]methanesulfonanilide (Compound A). Blood pressure changes at doses of 50, 100, and 200 mg./kg. body weight are given in millimeters of mercury and are represented by circles (-0 -) with percent change in heart rate represented by squares (- -).
FIG. 2 constitutes a dose-response graph of blood pressure and heart rate changes similar to that of FIG. 1 for 4-[2-( 1-phenoxy-2-propylamino)-1-hydroxyethyl]methanesulfonanilide (Compound B).
Another in vivo animal experiment considered predictive of antihypertensive utility by those skilled in the art is the lowering of blood pressure in an inbred strain of spontaneously hypertensive rat (SHR) established by Okamoto and Aoki. In this test, systolic blood pressure and heart rate determinations are made immediately before the animals are orally dosed to provide control values and subsequently thereafter at 4 and 24-hour periods to determine drug effect. Various doses of test drug are administered and a dose-response graph obtained by plotting (on semi-log paper) the observed change (mm Hg) in systolic blood pressure and percent change in heart rate as […]. […] Values set forth in Table II below are taken from FIGS. 1 and 2.

[3] = acute toxicity in mice (LD50); conditions: mouse, in vivo, hydrochloride
[4] = acute toxicity in rats (oral LD50); conditions: rat, in vivo, hydrochloride
beta-receptor = conditions: isolated guinea pig tracheal spiral; Uloth et al., J. Med. Chem. 9, 88-97 (1966); cited from earlier work
[5] = 0.3 mg/kg i.v., + = increase from control (footnote c)

## CS(=O)(=O)Nc1ccc(C(O)CNCCOc2ccccc2)cc1 (stereo not drawn) [Compound A, 4'-[1-hydroxy-2-[(2-phenoxyethyl)amino]ethyl]methanesulfonanilide]
mammals
  change in heart rate: little or no effect on heart rate
mammals; listed as compound of the instant invention
  change in heart rate: little or no significant change in heart rate
mammals; effective dose
  effect on blood pressure: reduces blood pressure
[1]; 0.1 mg/kg i.v.
  Absolute Change From Control in Contractile Force (CF): 9 ± 6 gm
  Absolute Change From Control in Heart Rate (HR): 18 ± 4 bpm
  Absolute Change From Control in Mean Arterial Blood Pressure (MABP): 11 ± 1 mm Hg
[1]; 0.3 mg/kg i.v.
  Absolute Change From Control in Contractile Force (CF): 8 ± 6 gm
  Absolute Change From Control in Heart Rate (HR): 22 ± 4 bpm
[1]; [5]
  Absolute Change From Control in Mean Arterial Blood Pressure (MABP): 17 ± 3 mm Hg
[1]; 1.0 mg/kg i.v.
  Absolute Change From Control in Contractile Force (CF): 11 ± 5 gm
  Absolute Change From Control in Heart Rate (HR): 32 ± 5 bpm
  Absolute Change From Control in Mean Arterial Blood Pressure (MABP): 12 ± 3 mm Hg
[1]; 3.0 mg/kg i.v.
  Absolute Change From Control in Contractile Force (CF): 11 ± 5 gm
  Absolute Change From Control in Heart Rate (HR): 38 ± 6 bpm
  Absolute Change From Control in Mean Arterial Blood Pressure (MABP): 16 ± 4 mm Hg
[1]; 10.0 mg/kg i.v.
  Absolute Change From Control in Contractile Force (CF): 17 ± 7 gm
  Absolute Change From Control in Heart Rate (HR): 38 ± 6 bpm
  Absolute Change From Control in Mean Arterial Blood Pressure (MABP): 34 ± 7 mm Hg
[1]; dose of 0.1 mg./kg.
  reduction in heart rate: 12%
[1]; doses of 0.3 to 1.0 mg./kg.
  effect on mean arterial blood pressure: effectively reduces mean arterial blood pressure
[2]; oral, taken from FIGS. 1 and 2
  ED (40 mm Hg): 165 mg/kg
  ED (10%): 150 mg/kg
  Percent decrease in blood pressure at dose lowering heart rate by 10%: 38%
  Percent decrease in heart rate at dose lowering blood pressure by 40 mm Hg: 11%
[2]; at doses sufficient to reduce blood pressure by 40 mm Hg
  bradycardia liability relative to Compound B: about 50%
[2]; oral
  reduction of heart rate: 2-12%
  reduction of systolic blood pressure: 22-43 mm Hg

## CS(=O)(=O)Nc1ccc(C(O)CNCCOc2ccccc2)cc1.Cl (stereo not drawn) [4'-[1-Hydroxy-2-[(2-phenoxyethyl)amino]ethyl]methanesulfonanilide Hydrochloride]
[3]; ip, intraperitoneal, read-out: intraperitoneal LD50
  LD50: 273 mg/kg
[3]; oral, read-out: oral LD50
  LD50: 1920 mg/kg
[4]; female rat
  LD50: 1950 mg/kg
[4]; male rat
  LD50: 3550 mg/kg

## CC(COc1ccccc1)NCC(O)c1ccc(NS(C)(=O)=O)cc1 (stereo not drawn) [Compound B, 4-[2-(1-phenoxy-2-propylamino)-1-hydroxyethyl]methanesulfonanilide, reference compound]
beta-receptor
  beta-receptor blocking activity relative to dichloroisoproterenol: four times the activity of dichloroisoproterenol
mammals
  change in heart rate: substantial decrease in heart rate
[1]; 0.3 mg/kg i.v.
  Absolute Change From Control in Contractile Force (CF): 6 ± 7 gm
  Absolute Change From Control in Heart Rate (HR): 29 bpm
[1]; [5]
  Absolute Change From Control in Mean Arterial Blood Pressure (MABP): +1 ± 5 mm Hg
[1]; 1.0 mg/kg i.v.
  Absolute Change From Control in Contractile Force (CF): 4 ± 7 gm
  Absolute Change From Control in Heart Rate (HR): 39 ± 7 bpm
  Absolute Change From Control in Mean Arterial Blood Pressure (MABP): 2 ± 6 mm Hg
[1]; 3.0 mg/kg i.v.
  Absolute Change From Control in Contractile Force (CF): 4 ± 7 gm
  Absolute Change From Control in Heart Rate (HR): 54 ± 7 bpm
  Absolute Change From Control in Mean Arterial Blood Pressure (MABP): 10 ± 8 mm Hg
[1]; 10.0 mg/kg i.v.
  Absolute Change From Control in Contractile Force (CF): 6 ± 9 gm
  Absolute Change From Control in Heart Rate (HR): 72 ± 9 bpm
  Absolute Change From Control in Mean Arterial Blood Pressure (MABP): 28 ± 14 mm Hg
[1]; dose of 3 mg./kg.
  reduction in heart rate: 33%
[1]; doses of 0.3 to 1.0 mg./kg.
  effect on heart rate (bradycardia): pronounced bradycardia
  effect on mean arterial blood pressure: no significant effect
[2]; oral, taken from FIGS. 1 and 2
  ED (40 mm Hg): 100 mg/kg
  ED (10%): 18 mg/kg
  Percent decrease in heart rate at dose lowering blood pressure by 40 mm Hg: 21%
  decrease in blood pressure at dose lowering heart rate by 10% (in words): no significant; also recorded: no effect on blood pressure
[2]; oral
  reduction of heart rate: 17-25%
  reduction of systolic blood pressure: 18-64 mm Hg
